Assay results taken from patent EP4670735A1, “PRODRUG NANOPARTICLE FOR TUMOR-TARGETED ULTRASOUND-[…] THERAPY” (Schleuning, Christian, priority 2024, dated 2025).

What was measured:
[1] = test system: human breast cancer (MCF-7) cells; assay: Cytotoxicity (MTT) in the dark or upon exposure to ultrasound radiation; assay type: cell-based; details: 4 h incubation, then 44 h, concentrations correspond to the platinum complex
Experimental: (§1) 6 × 10^3 cells were seeded onto 96-well plates and allowed to adhere overnight. The cells were treated with increasing concentrations of the compound which was diluted in cell media to a total volume of 200 µL. The cells were incubated with the compound for 4 h and after this time the medium refreshed. The cells for the dark group were grown for an additional 44 h at 37 °C. The cells for the ultrasound group were exposed to ultrasound radiation (1.5 W/cm^2, 2 min) with an Intelect Mobile 2 Ultrasound Emitter (DJO Global). The cells for the ultrasound group were grown for an additional 44 h at 37 °C. After this incubation time, the culture medium was substituted with PBS buffer containing 3-(4,5-dimethylthiazol-2-yl)-2,5-diphenyltetrazolium bromide (MTT) with a final concentration of 12 µM. The cells were incubated for 2 h at 37 °C and 10 % CO2 After this time, the DPBS-MTT mixture was removed and the wells filled with 200 µL DMSO. Using a 620 nm reference wavelength, the absorption of the formazan was measured at 550 nm with an Infinite M Nano plus Microplate reader (Tecan).
(§2) In contrast, the nanoparticles induced a cytotoxic effect upon exposure to ultrasound radiation. Table 1 reflects the respective data, which are also visualized in Fig. 3. Table 1: Cytotoxicity (IC50 in µM) of oxaliplatin, NP-Pt-1 and NP-Pt-2 in the dark or upon exposure to ultrasound radiation in mouse colon carcinoma (CT-26) and human breast cancer (MCF-7) cells. The mentioned concentrations correspond to the platinum complex.

[2] = test system: mouse colon carcinoma (CT-26) cells; assay: as above; assay type: cell-based; details: 4 h incubation, then 44 h, concentrations correspond to the platinum complex
Experimental: as §1, §2

## O=C1[O][Pt]2([NH][C@@H]3CCCC[C@H]3[NH]2)[O]C1=O [Oxaliplatin]
[1]; MCF-7, dark, 2880 min
  IC50: 24.5 ± 4.6 µM
[1]; MCF-7, ultrasound (1.5 W/cm^2, 2 min)
  IC50: 22.4 ± 4.8 µM
[2]; CT-26, dark, 2880 min
  IC50: 20.4 ± 3.1 µM
[2]; CT-26, ultrasound (1.5 W/cm^2, 2 min)
  IC50: 19.3 ± 3.4 µM
